Test results from patent US9346809B2 (LEO PHARMA A/S, priority 2009, dated 2016).

Columns and labels:
Type in all cases: biochemical
[1] = target: T1, JAK2 (catalytic domain, His-tag) (Homo sapiens, UniProt O60674); test: JAK kinase assay (HTRF, phosphorylation of TK substrate-biotin), JAK2; conditions: ATP at Km (4 μM); read-out: JAK2 kinase inhibitory activity (EC50 indicator)
T1 construct: All four purified enzymes contain only the catalytic domain; His (N); purchased Carna Biosciences, Inc; host or cells: baculovirus expression system
T1 sequence (O60674 849-1124 limits assumed): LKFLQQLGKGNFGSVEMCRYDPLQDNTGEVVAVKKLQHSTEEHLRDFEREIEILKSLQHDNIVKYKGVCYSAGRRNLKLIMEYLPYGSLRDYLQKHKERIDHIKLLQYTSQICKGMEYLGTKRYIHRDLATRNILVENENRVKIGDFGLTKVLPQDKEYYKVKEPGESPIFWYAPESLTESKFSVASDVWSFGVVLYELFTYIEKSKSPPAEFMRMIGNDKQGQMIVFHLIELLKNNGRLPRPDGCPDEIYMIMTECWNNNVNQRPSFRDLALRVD
Method: (§1) Human baculovirus-expressed JAK1, 2, 3 and TYK2 were purchased from Carna Biosciences, Inc. All four purified enzymes contain only the catalytic domain. JAK1 (aa 850-1154) and TYK2 (aa 871-1187) are expressed with an N-terminally fused GST-tag, and JAK2 and JAK3 with an N-terminally fused His-tag.
(§2) Inhibition of phosphorylation of a synthetic peptide was measured in an HTRF-based assay using the TK substrate-Biotin from the Cisbio HTRFKinEASE TK kit. First, 2 μl of TK solution (TK substrate-biotin in kinase buffer [1× enzymatic buffer from HTRFKinEASE TK kit, 1 mM DTT]) is added to a plate containing 1 μl prediluted compound (final assay concentration DMSO: 0.75%). Then, 5 μl kinase-ATP mix (prepared in kinase buffer) is added to the wells and the plates are incubated at RT for 20-30 min. For all four kinases a concentration of ATP that corresponded to the Km for ATP was used. The final concentrations of buffers, substrate, kinase and ATP were: JAK1: 50 mM Hepes buffer pH 7.0, 0.01% BSA, 10 mM MgCl2, 1 mM DTT, 7 μM ATP, 50 nM SEB, 1 μM TK Substrate-Biotin and 5 ng JAK1; JAK2: 50 mM Hepes buffer pH 7.0, 0.01% BSA, 5 mM MgCl2, 1 mM DTT, 4 μM ATP, 1 μM TK Substrate-Biotin and 0.1 ng JAK2; JAK3: 50 mM Hepes buffer pH 7.0, 0.01% BSA, 5 mM MgCl2, 1 mM DTT, 2 μM ATP, 1 μM TK Substrate-Biotin and 0.3 ng JAK3; TYK2: 50 mM Hepes buffer pH 7.0, 0.01% BSA, 5 mM MgCl2, 1 mM DTT, 13 μM ATP, 50 nM SEB, 1 μM TK Substrate-Biotin and 0.8 ng TYK2. Thereafter, the kinase reaction is stopped by adding 4 μl detection mix (final concentrations: 50 mM Hepes buffer pH 7.0, 0.01% BSA, 0.8 M KF, 20 mM EDTA, 42 nM Streptavidin-XL665 and 1:400 STK Ab Cryptate) and the plates are incubated overnight in the dark. The HTRF signal is read using an Envision plate reader.
(§3) In Table 1 selected JAK kinase inhibitory activities are listed with the following indicators: I: EC50<100 nM, II: 100 nM≦EC50≦500 nM and III: EC50>500 nM

[2] = target: T2, JAK1 (aa 850-1154, catalytic domain, GST-tag) (Homo sapiens, UniProt P23458); test: JAK kinase assay (HTRF, phosphorylation of TK substrate-biotin), JAK1; conditions: ATP at Km (7 μM); read-out: JAK1 kinase inhibitory activity (EC50 indicator)
T2 construct: JAK1 (aa 850-1154) and TYK2 (aa 871-1187) are expressed with an N-terminally fused GST-tag; GST (N); purchased Carna Biosciences, Inc; host or cells: baculovirus expression system
T2 sequence (P23458 850-1154): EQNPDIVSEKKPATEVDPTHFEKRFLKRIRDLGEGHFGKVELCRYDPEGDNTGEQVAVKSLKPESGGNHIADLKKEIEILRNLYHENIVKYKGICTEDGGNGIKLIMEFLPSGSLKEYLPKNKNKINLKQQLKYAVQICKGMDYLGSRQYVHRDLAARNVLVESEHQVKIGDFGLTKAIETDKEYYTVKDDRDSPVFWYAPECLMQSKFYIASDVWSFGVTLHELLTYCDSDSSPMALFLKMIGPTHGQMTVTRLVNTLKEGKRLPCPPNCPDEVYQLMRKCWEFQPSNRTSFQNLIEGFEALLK
Method: as §1, §2, §3

[3] = target: T3, TYK2 (aa 871-1187, catalytic domain, GST-tag) (Homo sapiens, UniProt P29597); test: JAK kinase assay (HTRF, phosphorylation of TK substrate-biotin), TYK2; conditions: ATP at Km (13 μM); read-out: TYK2 kinase inhibitory activity (EC50 indicator)
T3 construct: JAK1 (aa 850-1154) and TYK2 (aa 871-1187) are expressed with an N-terminally fused GST-tag; GST (N); purchased Carna Biosciences, Inc; host or cells: baculovirus expression system
T3 sequence (P29597 871-1187): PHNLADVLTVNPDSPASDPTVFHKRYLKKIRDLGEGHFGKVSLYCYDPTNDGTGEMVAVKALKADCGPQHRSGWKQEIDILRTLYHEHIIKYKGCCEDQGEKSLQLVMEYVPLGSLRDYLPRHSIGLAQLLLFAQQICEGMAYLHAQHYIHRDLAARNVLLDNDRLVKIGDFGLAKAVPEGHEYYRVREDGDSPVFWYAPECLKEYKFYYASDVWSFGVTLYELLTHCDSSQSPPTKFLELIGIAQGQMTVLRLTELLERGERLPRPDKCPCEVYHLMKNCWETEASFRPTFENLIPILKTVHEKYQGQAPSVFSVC
Method: as §1, §2, §3

[4] = target: T4, JAK3 (catalytic domain, His-tag) (Homo sapiens, UniProt P52333); test: JAK kinase assay (HTRF, phosphorylation of TK substrate-biotin), JAK3; conditions: ATP at Km (2 μM); read-out: JAK3 kinase inhibitory activity (EC50 indicator)
T4 construct: All four purified enzymes contain only the catalytic domain; His (N); purchased Carna Biosciences, Inc; host or cells: baculovirus expression system
T4 sequence (P52333 822-1111 limits assumed): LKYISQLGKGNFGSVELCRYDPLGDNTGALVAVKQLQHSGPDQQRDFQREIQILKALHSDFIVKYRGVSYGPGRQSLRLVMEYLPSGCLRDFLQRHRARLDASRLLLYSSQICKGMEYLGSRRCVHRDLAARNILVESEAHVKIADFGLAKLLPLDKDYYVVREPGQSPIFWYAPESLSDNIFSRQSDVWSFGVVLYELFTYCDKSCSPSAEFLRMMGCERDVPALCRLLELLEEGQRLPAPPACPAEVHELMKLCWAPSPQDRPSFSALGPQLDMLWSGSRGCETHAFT
Method: as §1, §2, §3

SMILES	EC50 [1]	EC50 [2]	EC50 [3]	EC50 [4]
O=C(c1cccc(C(F)(F)F)c1)N1CCN(c2ncnc3[nH]ccc23)CC12CC2 [Example 20, [7-(7H-Pyrrolo[2,3-d]pyrimidin-4-yl)-4,7-diazaspiro[2.5]oct-4-yl]-(3-trifluoromethylphenyl)methanone]	< 100 nM	< 100 nM	100 to 500 nM	100 to 500 nM
N#Cc1cccc(CC(=O)N2CCN(c3ncnc4[nH]ccc34)CC23CC3)c1 [Example 25, 3-{2-Oxo-2-[7-(7H-pyrrolo[2,3-d]pyrimidin-4-yl)-4,7-diazaspiro[2.5]oct-4-yl]-ethyl}benzonitrile]	< 100 nM	100 to 500 nM	> 500 nM	100 to 500 nM
O=C(c1cc2ccccc2s1)N1CCN(c2ncnc3[nH]ccc23)CC12CC2 [Example 26, Benzo[b]thiophen-2-yl-[7-(7H-pyrrolo[2,3-d]pyrimidin-4-yl)-4,7-diazaspiro[2.5]oct-4-yl]methanone]	< 100 nM	< 100 nM	100 to 500 nM	100 to 500 nM
CCOC(=O)NC(=S)N1[C@@H]2CC[C@H]1CN(c1ncnc3[nH]ccc13)C2 [Example 29, [3-(7H-Pyrrolo[2,3-d]pyrimidin-4-yl)-3,8-diazabicyclo[3.2.1]octane-8-carbothioyl]carbamic acid ethyl ester]	100 to 500 nM	100 to 500 nM	> 500 nM	> 500 nM
CCC(=O)N1[C@@H]2CC[C@H]1CN(c1ncnc3[nH]ccc13)C2 [Example 30, 1-[3-(7H-Pyrrolo[2,3-d]pyrimidin-4-yl)-3,8-diazabicyclo[3.2.1]oct-8-yl]propan-1-one]	100 to 500 nM	100 to 500 nM	> 500 nM	> 500 nM
N#Cc1ccc(C(=O)N2[C@@H]3CC[C@H]2CN(c2ncnc4[nH]ccc24)C3)cc1 [Example 31, 4-[3-(7H-Pyrrolo[2,3-d]pyrimidin-4-yl)-3,8-diazabicyclo[3.2.1]octane-8-carbonyl]benzonitrile]	< 100 nM	< 100 nM	> 500 nM	100 to 500 nM
O=C(Cc1ccccc1)N1[C@@H]2CC[C@H]1CN(c1ncnc3[nH]ccc13)C2 [Example 32, 2-Phenyl-1-[3-(7H-pyrrolo[2,3-d]pyrimidin-4-yl)-3,8-diazabicyclo[3.2.1]oct-8-yl]ethanone]	100 to 500 nM	100 to 500 nM	> 500 nM	> 500 nM
O=C(c1ccccc1)N1[C@@H]2CC[C@H]1CN(c1ncnc3[nH]ccc13)C2 [Example 33, Phenyl-[3-(7H-pyrrolo[2,3-d]pyrimidin-4-yl)-3,8-diazabicyclo[3.2.1]oct-8-yl]methanone]	< 100 nM	< 100 nM	100 to 500 nM	100 to 500 nM
CC(=O)NCC(=O)N1[C@@H]2CC[C@@H]1CN(c1ncnc3[nH]ccc13)C2 [Example 34, N-{2-Oxo-2-[3-(7H-pyrrolo[2,3-d]pyrimidin-4-yl)-3,8-diaza-bicyclo[3.2.1]oct-8-yl]-ethyl}acetamide]	> 500 nM	> 500 nM	> 500 nM	> 500 nM
N#Cc1ccc(CC(=O)N2CCN(c3ncnc4[nH]ccc34)CC23CC3)cc1 [Example 35, 4-{2-Oxo-2-[7-(7H-pyrrolo[2,3-d]pyrimidin-4-yl)-4,7-diazaspiro[2.5]oct-4-yl]-ethyl}benzonitrile]	< 100 nM	< 100 nM	< 100 nM	< 100 nM
O=C(CC1CCCC1)N1[C@@H]2CC[C@H]1CN(c1ncnc3[nH]ccc13)C2 [Example 38, 2-Cyclopentyl-1-[3-(7H-pyrrolo[2,3-d]pyrimidin-4-yl)-3,8-diazabicyclo[3.2.1]oct-8-yl]ethanone]	< 100 nM	< 100 nM	> 500 nM	100 to 500 nM
COCCCNC(=S)N1[C@@H]2CC[C@H]1CN(c1ncnc3[nH]ccc13)C2 [Example 39, 3-(7H-Pyrrolo[2,3-d]pyrimidin-4-yl)-3,8-diazabicyclo[3.2.1]octane-8-carbothioic acid (3-methoxy-propyl)amide]	100 to 500 nM	> 500 nM	> 500 nM	> 500 nM
O=C(CC(F)(F)F)N1[C@@H]2CC[C@H]1CN(c1ncnc3[nH]ccc13)C2 [Example 40, 3,3,3-Trifluoro-1-[3-(7H-pyrrolo[2,3-d]pyrimidin-4-yl)-3,8-diaza-bicyclo[3.2.1]oct-8-yl]propan-1-one]	100 to 500 nM	100 to 500 nM	> 500 nM	> 500 nM

Results, then the molecule that gave them:

EC50 [1]	EC50 [2]	EC50 [3]	EC50 [4]	SMILES
< 100 nM	< 100 nM	> 500 nM	100 to 500 nM	O=C(Cc1ccncc1)N1CCN(c2ncnc3[nH]ccc23)CC12CC2 [Example 21, 2-Pyridin-4-yl-1-[7-(7H-pyrrolo[2,3-d]pyrimidin-4-yl)-4,7-diazaspiro[2.5]oct-4-yl]ethanone]
< 100 nM	100 to 500 nM	> 500 nM	100 to 500 nM	O=C(C1CCCO1)N1CCN(c2ncnc3[nH]ccc23)CC12CC2 (stereo not drawn) [Example 22, [7-(7H-Pyrrolo[2,3-d]pyrimidin-4-yl)-4,7-diazaspiro[2.5]oct-4-yl]-(tetrahydrofuran-2-yl)methanone]
< 100 nM	< 100 nM	100 to 500 nM	< 100 nM	O=C1CCC(C(=O)N2CCN(c3ncnc4[nH]ccc34)CC23CC3)CC1 [Example 23, 4-[7-(7H-Pyrrolo[2,3-d]pyrimidin-4-yl)-4,7-diazaspiro[2.5]octane-4-carbonyl]cyclohexanone]
< 100 nM	< 100 nM	> 500 nM	< 100 nM	O=C(CC(F)(F)F)N1CCN(c2ncnc3[nH]ccc23)CC12CC2 [Example 24, 3,3,3-Trifluoro-1-[7-(7H-pyrrolo[2,3-d]pyrimidin-4-yl)-4,7-diazaspiro[2.5]oct-4-yl]propan-1-one]
< 100 nM	< 100 nM	100 to 500 nM	100 to 500 nM	O=C(c1ccccc1)N1CCN(c2ncnc3[nH]ccc23)CC12CC2 [Example 27, Phenyl-[7-(7H-pyrrolo[2,3-d]pyrimidin-4-yl)-4,7-diazaspiro[2.5]oct-4-yl]methanone]
< 100 nM	< 100 nM	100 to 500 nM	< 100 nM	O=C(CCC(F)(F)F)N1CCN(c2ncnc3[nH]ccc23)CC12CC2 [Example 28, 4,4,4-Trifluoro-1-[7-(7H-pyrrolo[2,3-d]pyrimidin-4-yl)-4,7-diazaspiro[2.5]oct-4-yl]butan-1-one]
100 to 500 nM	100 to 500 nM	> 500 nM	> 500 nM	O=C(c1ccc2cc[nH]c2c1)N1CCN(c2ncnc3[nH]ccc23)CC12CC2 [Example 36, (1H-Indol-6-yl)-[7-(7H-pyrrolo[2,3-d]pyrimidin-4-yl)-4,7-diazaspiro[2.5]oct-4-yl]methanone]
< 100 nM	< 100 nM	> 500 nM	100 to 500 nM	CS(=O)(=O)CCC(=O)N1CCN(c2ncnc3[nH]ccc23)CC12CC2 [Example 37, 3-Methanesulfonyl-1-[7-(7H-pyrrolo[2,3-d]pyrimidin-4-yl)-4,7-diazaspiro[2.5]oct-4-yl]propan-1-one]
